Publication PMC5312529 (BMC Cancer, 2017)
Read-outs that look alike come from different tables or passages of the source. Marks after values point to notes of the source that are not given here. Blank lines part the entries; values can stand above or below the compound they belong to.

Assays:
[1] = test system: patients with advanced solid tumors; details: cited from earlier work
[2] = test system: Fridericia’s heart rate-corrected QT interval (QTcF); experiment: Exploratory QTcF assessment from electrocardiograms; type: in vivo, human; details: ECG at baseline and after LY2603618 on days 2 and 16 of cycle one
Text: (§1) Exploratory analyses included: change from baseline in tumor size and carbohydrate antigen 19–9 (CA19-9) levels, and changes in QTcF from electrocardiograms (ECG) obtained at baseline and after LY2603618 administration on days 2 and 16 during cycle one.

[3] = test system: HT-29 xenograft models; design: method as in data on file; details: nonclinical HT-29 xenograft models; ref data on file; cited from earlier work
[4] = test system: genomic DNA; experiment: Nucleoside analog DNA incorporation assay (gemcitabine/dFdC in genomic DNA); type: in vivo, human
[5] = test system: patients with locally advanced or metastatic pancreatic cancer; experiment: Safety: treatment-emergent adverse events graded by CTCAE v 3.0; type: in vivo, human
Procedure: (§2) Prior to enrollment, the study protocol, patient informed consent, and any other written study documentation were approved by an ethics committee. This trial was conducted in accordance with the Declaration of Helsinki and the Good Clinical Practice Guidelines of the International Conference on Harmonization. Phase II of this open-label, multicenter, randomized, 2-arm, Phase I/II trial was conducted in patients with locally advanced or metastatic pancreatic cancer. […] Patients continued on treatment until disease progression, unacceptable toxicity, or patient unwillingness to participate.
All patients who received at least one dose of study drug were evaluated for safety and toxicity. AE severity was graded using the Common Terminology Criteria for AEs (CTCAE) v 3.0.

[6] = LY2603618 plasma pharmacokinetics, noncompartmental analysis; type: in vivo, human; details: for Cmax / AUC(0-inf) / AUC(0-t) / clearance / Vd / half-life: 230 mg; for Cmax: read-out: Cmax, Geometric Mean (CV%); for AUC(0-inf): read-out: AUC(0-∞), Geometric Mean (CV%); for AUC(0-t): read-out: AUC(0–24), Geometric Mean (CV%); for clearance: read-out: CL, Geometric Mean (CV%) (converted); for Vd: read-out: Vss, Geometric Mean (CV%); for half-life: read-out: t1/2, Geometric Mean (CV%) (converted)
Procedure: LY2603618 concentrations were quantified using a validated high-pressure liquid chromatography/mass spectrometry/mass spectrometry method. Whole blood samples were collected following the LY2603618 infusion on days 2 and 16 of cycle 1 before the start (<10 min) of infusion; immediately prior to the end of infusion (<5 min); and at 1, 3, and 24 h after the end of infusion. LY2603618 PK parameters were computed from the plasma concentration versus time data by standard noncompartmental analyses (Phoenix WinNonlin version 6.3, Pharsight, A Certara Company®; Princeton, NJ, USA).

[7] = test system: patients with solid tumors; design: method as in PMID 27598338; details: in combination with gemcitabine; cited from earlier work
[8] = test system: carbohydrate antigen 19–9 (CA19-9); experiment: CA19-9 biomarker response; type: in vivo, human; details: patients with baseline CA19-9 > upper limit of normal
Text: as §1, with “one. […] A sample for CA–19–9 analysis was collected at the start of each cycle.” for “one.”

[9] = test system: metastatic pancreatic adenocarcinoma; design: method as in PMID 21969517; details: MPACT; cited from earlier work
[10] = test system: patients with locally advanced or metastatic pancreatic cancer; experiment: Patient disposition and treatment exposure; type: in vivo
Procedure: as §2
The first patient was enrolled on 26 February 2009.

[11] = test system: Stage II-IV locally advanced or metastatic pancreatic cancer; experiment: Phase II randomized trial: overall survival, PFS, response (RECIST v 1.1); type: in vivo, human
Text: Adult patients who had given informed consent had adequate hematological, liver, and renal functions; histological or cytological evidence of a diagnosis of Stage II or III adenocarcinoma of the pancreas not amenable to resection with curative intent or Stage IV disease; and an Eastern Cooperative Oncology Group performance status (ECOG PS) 0–2. Patients with previous radical surgery for pancreatic cancer were eligible after progression was documented.
as §2
In addition to the Bayesian model, frequentist analysis of OS was also performed as a sensitivity analysis. The definition of secondary efficacy variables was consistent with standard conventions per RECIST (v 1.1).

[12] = 230 mg LY2603618, Cycle 1 Day 2
[13] = 230 mg LY2603618, Cycle 1 Day 16
[14] = 230 mg LY2603618, days 2 and 16 of cycle 1
[15] = human, plasma, intravenous, 230 mg LY2603618, Cycle 1 Day 2
[16] = human, plasma, intravenous, 230 mg LY2603618, Cycle 1 Day 16
[17] = study drug-related TEAE, any grade

SMILES: NC(=O)Nc1cc(-c2cccc(F)c2)sc1C(=O)N[C@H]1CCCNC1 [AZD7762]
Toxicity observed in Phase 1 study [1]: unpredictable cardiac toxicity was observed

AUC(tlast-∞), Geometric Mean (CV%) [6, 12]: 14.3 (131) ^d % | Cav,24, Geometric Mean (CV%) [6, 12]: 966 (68) ^d ng/mL | AUC(tlast-∞), Geometric Mean (CV%) [6, 13]: 12.0 (152) ^e % | Cav,24, Geometric Mean (CV%) [6, 13]: 987 (60) ^e ng/mL | tmax, Median (range) [6, 13]: 1.00 (0.88–1.83) h | Individual PK profiles above the target for AUC(0-∞) (≥21,000 ng hr/mL) [6, 14]: 73% | Individual PK profiles above the target for Cmax (≥2000 ng/mL) [6, 14]: 87% | Cmax ([6]; human, plasma, intravenous, 230 mg LY2603618 1-h infusion ~24 h after gemcitabine, Cycle 1 Day 2): 3170 ng/mL | AUC(0-inf) [6, 15]: 29400 ng·h/mL | AUC(0-t) [6, 15]: 23200 ng·h/mL | clearance [6, 15]: 130 mL/min | Vd [6, 15]: 104 L | half-life [6, 15]: 9.67 h | AUC(0-inf) [6, 16]: 29100 ng·h/mL | AUC(0-t) [6, 16]: 23700 ng·h/mL | clearance [6, 16]: 131 mL/min | Cmax [6, 16]: 3410 ng/mL | Vd [6, 16]: 95.1 L | half-life [6, 16]: 8.86 h | Tmax ([6]; human, plasma, intravenous, 230 mg LY2603618, Cycle 1 Day 2, read-out: tmax, Median (range)): 1 h
SMILES: Cc1cnc(NC(=O)Nc2cc(Br)c(C)cc2OC[C@@H]2CNCCO2)cn1 [LY2603618]
Patients with change in QTcF from baseline >60 msec [2]: no patients | Patients with change in QTcF from baseline between 30 and 60 msec [2]: Five | Trends in ECG parameter changes (time-point QTcF assessment) [2]: no clinically significant trends | Plasma systemic exposure target AUC(0-∞) that correlates with maximal pharmacodynamic effect [3]: ≥ 21,000 ng hr/mL | Plasma systemic exposure target Cmax that correlates with maximal pharmacodynamic effect [3]: ≥ 2000 ng/mL | Relation of increases in dFdC incorporation into DNA to LY2603618 dose ([4]; in vivo): did not correspond to increasing doses of LY2603618 | Effect of the addition of LY2603618 on the safety profile of gemcitabine ([5]; in vivo): did not significantly change the safety profile of gemcitabine | Recommended Phase II dose [7]: 230 mg

SMILES: Nc1ccn([C@@H]2O[C@H](CO)[C@@H](O)C2(F)F)c(=O)n1 [Gemcitabine, gemcitabine]
Patients with >50% reduction from baseline in CA19-9 levels [8]: 64% | Median OS [9]: 6.7 months | dFdC levels incorporated into DNA over the treatment cycle ([4]; following gemcitabine administration): declining to almost baseline by the end of each treatment cycle | Events leading to discontinuation that were possibly related to treatment ([5]; among patients who discontinued due to AEs): four | Study drug-related treatment-emergent AEs (TEAEs), patients ([5]; any grade): 91.2% | Patients with ≥1 TEAE (study drug-related) ([5]; any grade, safety population): 31 (91.2) n (%) | Patients who discontinued the study due to AEs ([5]; in vivo): 6 n | Serious adverse events (SAE) related to study treatment, patients ([5]; in vivo): 23.5% | Alopecia [5, 17]: 4 (11.8) n (%) | Anemia [5, 17]: 9 (26.5) n (%) | Asthenia [5, 17]: 5 (14.7) n (%) | Constipation [5, 17]: 3 (8.8) n (%) | Decreased appetite [5, 17]: 3 (8.8) n (%) | Diarrhea [5, 17]: 3 (8.8) n (%) | Fatigue [5, 17]: 10 (29.4) n (%) | Leukopenia [5, 17]: 5 (14.7) n (%) | Nausea [5, 17]: 8 (23.5) n (%) | Neutropenia [5, 17]: 9 (26.5) n (%) | Oedema peripheral [5, 17]: 2 (5.9) n (%) | Patients who experienced anemia [5, 17]: 26.5% | Pyrexia [5, 17]: 5 (14.7) n (%) | Stomatitis [5, 17]: 1 (2.9) n (%) | Thrombocytopenia [5, 17]: 14 (41.2) n (%) | Vomiting [5, 17]: 3 (8.8) n (%) | Decreased hemoglobin ([5]; study drug-related, Grade 3): 4 (11.8) n (%) | Decreased leukocytes ([5]; study drug-related, Grade 3): 1 (2.9) n (%) | Decreased platelets ([5]; study drug-related, Grade 3): 3 (8.8) n (%) | Dehydration ([5]; study drug-related, Grade 3): 2 (5.9) n (%) | Fatigue ([5]; study drug-related, Grade 3): 3 (8.8) n (%) | Hyponatremia ([5]; study drug-related, Grade 3): 2 (5.9) n (%) | Patients with ≥1 TEAE ([5]; study drug-related, Grade 3): 19 (55.9) n (%) | Thrombotic microangiopathy ([5]; study drug-related, Grade 3): 2 (5.9) n (%) | Decreased hemoglobin ([5]; study drug-related, Grade 4): 0 n (%) | Decreased leukocytes ([5]; study drug-related, Grade 4): 1 (2.9) n (%) | Decreased platelets ([5]; study drug-related, Grade 4): 1 (2.9) n (%) | Dehydration ([5]; study drug-related, Grade 4): 0 n (%) | Fatigue ([5]; study drug-related, Grade 4): 0 n (%) | Hyponatremia ([5]; study drug-related, Grade 4): 0 n (%) | Patients with ≥1 TEAE ([5]; study drug-related, Grade 4): 3 (8.8) n (%) | Thrombotic microangiopathy ([5]; study drug-related, Grade 4): 0 n (%) | Study discontinuation due to death ([10]; ITT population): 2.9% | Study discontinuation due to progressive disease ([10]; ITT population): 61.8% | Study discontinuation due to AE ([10]; human, in vivo): 17.6% | Median overall survival (OS) ([11]; ITT population, frequentist analysis): 8.3 months | Best Overall Response: CR ([11]; in vivo): 0 n (%; 95% CI) | Best Overall Response: PR ([11]; in vivo): 3 (8.8%; 1.9–23.7) n (%; 95% CI) | Best Overall Response: SD ([11]; in vivo): 19 (55.9%; 37.9–72.8) n (%; 95% CI) | Clinical Benefit Rate ([11]; in vivo): 22 (64.7%; 46.5–80.3) n (%; 95% CI) | Clinical benefit rate ([11]; in vivo): 64.7% | Duration of response, Median (range) ([11]; in vivo): 6.0 (3.7–6.8) mos. | Percentage of patients with partial response (PR) ([11]; in vivo): 8.8%
